From patent US20090176711A1, “INHIBITORS OF AMYLOID PRECURSOR PROTEIN PROCESSING” (priority 2008, published 2009)
“Also recorded” adds a separate entry of the source. Non-standard residues stand in square brackets, D forms with d. No end group written: not given here. *: point of attachment. Biotin = O=C1N[C@H]2[C@H](CS[C@H]2CCCCC(=O)*)N1; Dnp = O=[N+]([O-])c1ccc(*)c([N+](=O)[O-])c1; Mca = COc1ccc2c(CC(=O)*)cc(=O)oc2c1; Ahx = NCCCCCC(=O)O

Columns and labels:
[1] = tested on: cleavage of Substrate M by β-secretase; experiment: Inhibition of cleavage of Substrate M by β-secretase by complementary and deletion peptides (Examples 1, 5, 6; assay format not stated); format: biochemical; details: for inhibitory activity of deletion peptides on cleavage of Substrate M: 10 inhibitor/substrate ratio, Substrate M 50 μM; for concentration dependent inhibitory activity, activity group: various concentrations, Substrate M (FIG. 8); for inhibition of cleavage of Substrate M by β-secretase: FIG. 4
Procedure: So far we have focused on c-Sub M peptide. Serial deletions were made from N-terminus or C-terminus of c-Sub M (FIG. 5), and we investigated effect of the deletions on the cleavage of Substrate M. The optimum peptide/substrate ratio for inhibition on the cleavage of substrate was determined by observing the inhibition percentage at various peptide/substrate ratios (FIG. 4). Subsequently, the inhibitory activity of the deletion peptides were tested at 10 inhibitor/substrate ratio and the concentration of the Substrate M was 50 μM. Deletion of the first two amino acids from the N-terminus had little effect on the activity and deletion of five amino acids from the C-terminus of c-Sub M had little effect on the inhibitory activity (FIG. 6). Further deleted peptides were tested for inhibitory activity on the cleavage of Substrate M (FIG. 7).
The above-mentioned peptides that have inhibitory activity were tested at various concentrations for their inhibitory activities on their mutant substrate Substrate M (FIG. 8).

[2] = tested on: cleavage of F-Substrate M (f-Sub M) by rhBACE1; experiment: Fluorometric (FRET) assay for cleavage of F-Substrate M by rhBACE; format: biochemical, human; details: for inhibitory activity for cleavage of f-Sub M by rhBACE1: f-Sub M 10 μM
Text: This assay system utilizes fluorescence resonance energy transfer (FRET) technology. Substrate M was synthesized with two fluorophores, a fluorescent donor and a proprietary quenching acceptor (purchased from a commercial source, R&D Systems). […] Upon cleavage of substrate by β-secretase, the fluorophore is separated from the quenching group, restoring the full fluorescence yield of donor.
Substrate labeled with fluorophores will be called F-Substrate M (R&D Systems). Recombinant human β-secretase will be called rhBACE (recombinant human β-site APP cleavage enzyme) (purchased from R&D systems).
F-Substrate M (20 μM) was preincubated with varying concentrations of complementary peptides in assay buffer (0.1 M NaOAc, pH 4.0) for 1 hr at RT. rhBACE (70 nM) in assay buffer was added. Cleavage by rhBACE was detected by reading emitted fluorescence level.
In this assay system, fluorescence resonance energy transfer (FRET) technology was utilized. Swedish mutant APP substrate (f-Sub M) with a fluorescent donor and a proprietary quenching acceptor (7-methoxycoumarin-4-acetyl-SEVNLDAEFRK(Dnp)-RR-NH2) was purchased from R&D systems, Inc (MN, USA). […] Upon cleavage of substrate by rhBACE1 (R&D Systems, Inc., MN, USA), the fluorescence donor is separated from the quenching group, restoring the full fluorescence yield of the donor. f-Sub M (10 μM) was pre-incubated with HC peptide in assay buffer (0.1 M NaOAc, pH 4.0) for 2 h at RT. After pre-incubation, substrate and HC peptide mixture in assay buffer was transferred to FluoroNunc™ 96 well white plate (Nunc, Roskilde, Denmark), and rhBACE1 (70 nM) was added. Time-dependent emission of fluorescence (excitation at 320 nm, emission at 405 nm) was monitored in a Molecular Devices SpectraMax Gemini EM fluorescence reader (CA, USA) for 1 h at 37° C. All assays were carried out in duplicate.

[3] = biological target: T1, Substrate W (Sub W, SEVKMDAEFR; β-secretase cleavage site of wild type APP) (Homo sapiens, UniProt P05067); experiment: Binding of biotin-labeled Substrate W to immobilized complementary (HC) peptides; details: complementary peptide immobilized, biotin-labeled Substrate W
T1 construct: […]; purchased Peptron, Inc; host or cells: chemical synthesis
Procedure: (§1) Complementary peptides (0.2, 2, 20, and 200 μM) were dissolved in phosphate buffered saline (PBS) (pH 7.4) and fixed to microtiter wells for 5 hr at 37° C. The wells were blocked with blocking buffer (3% BSA/PBS) for 1 hr at 37° C. Either N-terminally biotinylated Substrate W or M (20 μM) in blocking buffer was added and incubated for overnight at 4° C. Streptavidin-horseradish peroxidase in blocking buffer was added to detect resulting bound substrates. The plate was incubated for 2 hr at room temperature (RT), followed by addition of 3,3′,5,5′-tetramethyl-benzidine (TMB) as substrate for horseradish peroxidase for color reaction.
In particular, for Substrate W, complementary peptides (200 μM) dissolved in phosphate buffered saline (PBS) (pH 7.4) were chemically coupled to Reacti-Bind Maleic Anhydride Activated Polystyrene wells (Pierce Biotechnology, Inc.) for overnight at room temperature (RT). Remaining active sites of the plate were inactivated by adding ethanolamine (1 M) for 1 hr at RT. The wells were blocked with blocking buffer (3% BSA/PBS) for 1 hr at RT. N-terminally biotinylated Substrate W (20 μM) in blocking buffer was added and incubated for 3 hr at RT. Streptavidin-horseradish peroxidase in blocking buffer was added to detect resulting bound substrates. The plate was incubated for 2 hr at room temperature (RT), followed by addition of 3,3′,5,5′-tetramethyl-benzidine (TMB) as substrate for horseradish peroxidase for color reaction.
(§2) Reacti-Bind™ maleic anhydride-activated polystyrene plate (Pierce, IL, USA) was coated with 50 μl of HC peptide (200 μM in distilled water) by chemical coupling for 3 h at room temperature (RT) and washed three times with phosphate buffered saline (PBS) containing 0.05% tween 20 (PBST). The plate was blocked with blocking buffer (0.5% gelatin in PBS) for 1 h at RT. After discarding blocking buffer, biotinylated BACE1 substrates (200 μM) in blocking buffer was applied on the plate and incubated for 2.5 h at RT. Each well was washed three times with PBST. The bound biotinylated BACE1 substrates were detected by incubation with streptavidin-horseradish peroxidase (Str-HRP, 125 mU/ml in blocking buffer) for 2 h at RT. Color reaction was carried out with 50 μl of 3,3′,5,5′-Tetramethylbenzidine Liquid Substrate (Sigma-Aldrich, MO, USA). After stopping the reaction by addition of an equal volume of 1 N HCl, absorbance at 450 nm was read in an automated ELISA reader (EL 312e, Bio-Tek Instruments, VT, USA). All assays were carried out in duplicate.

[4] = tested on: Substrate M (Sub M, SEVNLDAEFR; β-secretase cleavage site of APPsw); experiment: Binding of biotin-labeled Substrate M to immobilized complementary (HC) peptides; details: for binding activity for Sub M: HC peptides chemically coupled to plate, bio-Sub M
Procedure: as §1, §2

[5] = tested on: APP processing in HEK293-APP cells; experiment: APP inhibitor activity on HEK293-APP cells (βCTF Western blot); format: cell-based, human; details: γ-secretase inhibitor and cholesterol added
Procedure: In the neuronal cells of the brain, APP is processed by α-secretase or β-secretase. To investigate the effects of the inhibitors on the cell, a cell based assay system was developed as described in FIG. 10. C-terminal fragment of APP remaining on the cell membrane was detected by Western blot. The resulting C-terminal fragments, αCTF or βCTF are further processed by γ-secretase. However, if the cells are treated with the γ-secretase inhibitor, this processing is blocked. As a result, αCTF or βCTF accumulate in the cell. If β-secretase inhibitor or APP inhibitor is added, this processing is blocked and βCTF disappears.
In addition, γ-secretase inhibitor and cholesterol were added to the cells to increase βCTF level. Commercially available peptide-based β-secretase inhibitor was included as control (Lane 6, FIG. 11). To detect the N-terminal fragment of β-amyloid which is a product of APP processing, 6E10 antibody was employed. […] Recently, it has been reported that the commercially available peptide-based inhibitor had to be linked to an oligoarginine transporter peptide to have inhibitory activity against cells. Therefore, mimetic approach is adopted to produce cell permeable analogs. (Chang et al. J. Neurochemistry 2004; 89:1409-1416).
After confirming the ability of the oligo-arginine coupled APP inhibitors to enter the cells, the inhibitors were applied to HEK293-APP cells overexpressing APP to test their inhibitory activities on APP processing. […] This inhibitor started to show significant inhibitory activity beginning from 0.1 μM (lower panel).

[6] = biological target: T2, f-Sub M (7-methoxycoumarin-4-acetyl-SEVNLDAEFRK(Dnp)-RR-NH2); experiment: cell-based or functional assay
T2 peptide: Mca-SEVNLDAEFRK(Dnp)RR-NH2

Sub-ST6Ga11 = biological target: T3, Sub-ST6Ga11; experiment: cell-based or functional assay
T3 peptide: DYEALTLQAKEFQMPKSQE

[7] = biological target: T4, Substrate M (non-labeled); experiment: cell-based or functional assay
T4 peptide: SEVNLDAEFR

[8] = biological target: T5, N-terminally biotinylated Substrate W; experiment: plate assay: HC peptide chemically coupled to wells, bio-Sub W, streptavidin-HRP (FIG. 27)
T5 construct: also called bio-Sub W; Sub W
T5 peptide: Biotin-SEVKMDAEFR
Procedure: as §2
Thereafter, it was investigated if the c-Sub M and the deletions series bind to wild type Sub W. The results will give us important information on possibility of inhibition of wild type of APP cleavage in cells by the HC peptides derived from Sub M in view of the poor cleavage of Sub W by rhBACE1 in vitro. […] Thus, there is possibility that the HC peptides for Sub M (c-Sub M series) or its peptidomimetics will inhibit the cleavage of wild type APP by BACE1 in cells.

CIQI [C-Sub MΔN3C3]
inhibitory activity of deletion peptides on cleavage of Substrate M [1]: considerable inhibitory activity
concentration dependent inhibitory activity, activity group [1]: medium activity

CIQIHF (also: cyclic, mode of cyclisation not given here) [c-Sub M ΔN3C1]
inhibitory activity for cleavage of f-Sub M by rhBACE1 ([2]; N-terminal deletions of c-Sub M ΔC1, HC peptide 0.5 mM): maintains much of the original activity of c-Sub M; also recorded: without sacrificing the inhibitory activity too much
inhibitory activity relative to c-Sub M ΔN1C1 ([2]; substrate concentration 10 μM): about one tenth
inhibitory activity of deletion peptides on cleavage of Substrate M [1]: considerable inhibitory activity
concentration dependent inhibitory activity, activity group [1]: less activity

RLHFYLRLKA [Sub W-c]
binding to Substrate W [3]: do not bind
inhibition of cleavage of Substrate M by β-secretase [1]: do not inhibit cleavage

RLHLDLRLKA [Sub M-c]
binding to Substrate M ([4]; complementary peptide immobilized, biotin-labeled Substrate M): do not bind
inhibition of cleavage of Substrate M by β-secretase [1]: do not inhibit cleavage

SEFC (also: cyclic, mode of cyclisation not given here) [c-Sub MΔC6]
absorbance in binding test ([4]; substrate not specified): high absorbance
inhibitory activity on APP processing (βCTF) [5]: none of the inhibitors tested showed inhibitory activity

SEFCI (also: cyclic, mode of cyclisation not given here) [c-SubM ΔC5]
concentration dependent inhibitory activity, activity group [1]: medium activity

SEFCIHLHFR (also: cyclic, mode of cyclisation not given here) [c-Sub W]
binding activity for Sub M [4]: weak but significant binding
binding to Substrate W [3]: bind
inhibitory activity for cleavage of f-Sub M by rhBACE1 ([2]; HC peptide 1 mM): higher inhibitory activity
inhibition of cleavage of Substrate M by β-secretase [1]: inhibit cleavage
concentration dependent inhibitory activity, activity group [1]: medium activity

SEFCIQI (also: cyclic, mode of cyclisation not given here) [c-SubM ΔC3]
concentration dependent inhibitory activity, activity group [1]: most active group

SEFCIQIHF [c-Sub M ΔC1]
binding activity for Sub M [4]: relatively high binding activity

SEFCIQIH-NH2 [c-Sub M ΔC2]
inhibitory activity for the cleavage of f-Sub M by rhBACE1 (FRET; HC peptide 1 mM, f-Sub M 10 µM) [6]: 44%

SEFCIQI-NH2 [c-Sub M ΔC3]
inhibitory activity for the cleavage of f-Sub M by rhBACE1 (FRET; HC peptide 1 mM, f-Sub M 10 µM) [6]: > 90%

SEFCIQ-NH2 [c-Sub M ΔC4]
inhibitory activity for the cleavage of f-Sub M by rhBACE1 (FRET; HC peptide 1 mM, f-Sub M 10 µM) [6]: > 90%

SEFCI-NH2 [c-Sub M ΔC5]
inhibitory activity for the cleavage of f-Sub M by rhBACE1 (FRET; HC peptide 1 mM, f-Sub M 10 µM) [6]: > 90%

B1: c-Sub M ΔN1C1 (peptide)
peptide: EFCIQIHF-NH2
notes: also called one amino acid deletion from N-terminal of c-Sub M ΔC1
inhibition of the cleavage of Sub-ST6Ga11 by rhBACE1 (HPLC), inhibitor/substrate ratio 20 (Sub-ST6Ga11): 40%
inhibition of the cleavage of Sub-ST6Ga11 by rhBACE1 (HPLC), up to 10 inhibitor/substrate ratio (Sub-ST6Ga11): ~10%
inhibition of the cleavage of Sub M by rhBACE1 (HPLC), inhibitor/substrate ratio 20 [7]: 100%
inhibition of the cleavage of Sub M by rhBACE1 (HPLC), up to 10 inhibitor/substrate ratio [7]: 60%
IC50 of inhibition of f-Sub M (10 µM) cleavage by rhBACE1 (FRET) [6]: 15 µM
fold binding to Sub W relative to c-Sub W [8]: 2.5 fold

CIQIHF-NH2 (also called c-Sub M ΔC1N3; c-Sub ΔN3C1) [c-Sub M ΔN3C1]
inhibitory activity relative to c-Sub M ΔN1C1, f-Sub M (10 µM) cleavage by rhBACE1 (FRET) [6]: ~0.1 fold of c-Sub M ΔN1C1
binding result [8]: binds

B2: 6-aminohexanoic acid-c-Sub M ΔN3C1 (peptide)
peptide: [Ahx]CIQIHF-NH2
modifications: N-terminus assumed
SMILES: CC[C@H](C)[C@H](NC(=O)[C@H](CCC(N)=O)NC(=O)[C@@H](NC(=O)[C@H](CS)NC(=O)CCCCCN)[C@@H](C)CC)C(=O)N[C@@H](Cc1c[nH]cn1)C(=O)N[C@@H](Cc1ccccc1)C(N)=O
in vitro inhibitory activity on cleavage of f-Sub M by rhBACE1 relative to c-Sub M ΔN3C1 (FRET) [6]: ~0.5 fold of c-Sub M ΔN3C1

FCIQIHF-NH2 (also called FCIQIHF) [c-Sub M ΔN2C1]
percent of ST6Ga11 peptide cleavage by β-secretase blocked (HPLC), 25-fold inhibitor (Sub-ST6Ga11): 25%
percent of Sub M cleavage by β-secretase blocked (HPLC), 25-fold inhibitor [7]: ~60%
binding result [8]: binds
